Data published in PMC4792735 (Clinical pharmacokinetics, 2016).
Values joined by “and” are separate entries in the source; they are usually repeats but may differ in a detail not shown here. Equal values may be shown once. Read-outs that look alike come from different tables or passages of the source.

Columns and labels:
human MATE1 = biological target: T1, human MATE1 (Homo sapiens, UniProt Q96FL8); assay: Inhibition of [14C]-metformin uptake in HEK-MATE1 cells; format: cell-based; conditions: for inhibition at 10 x Cmax,u: human, probe [14C]-metformin 10 µM
T1 sequence (Q96FL8 1-570): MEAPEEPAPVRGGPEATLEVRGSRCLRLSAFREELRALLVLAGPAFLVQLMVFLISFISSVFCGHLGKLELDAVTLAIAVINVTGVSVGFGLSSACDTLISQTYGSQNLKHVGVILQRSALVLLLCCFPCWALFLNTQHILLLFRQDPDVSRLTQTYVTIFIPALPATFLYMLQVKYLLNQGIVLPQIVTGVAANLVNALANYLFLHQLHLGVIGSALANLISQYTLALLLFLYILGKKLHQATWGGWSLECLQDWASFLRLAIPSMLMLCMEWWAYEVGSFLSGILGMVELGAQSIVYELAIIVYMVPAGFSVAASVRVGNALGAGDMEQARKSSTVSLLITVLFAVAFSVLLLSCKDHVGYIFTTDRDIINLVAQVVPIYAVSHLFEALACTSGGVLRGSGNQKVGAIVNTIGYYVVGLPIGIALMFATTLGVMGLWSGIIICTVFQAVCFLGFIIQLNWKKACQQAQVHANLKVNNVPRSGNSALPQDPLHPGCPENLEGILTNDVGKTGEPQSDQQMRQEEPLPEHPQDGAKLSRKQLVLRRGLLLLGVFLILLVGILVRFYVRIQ

human OCT2 = biological target: T2, human OCT2 (Homo sapiens, UniProt O15244); assay: Inhibition of [14C]-metformin uptake in HEK-OCT2 cells; format: cell-based; conditions: for inhibition at 10 x Cmax,u: human, HEK293-Flp-In cells stably expressing human OCT2 (HEK-OCT2), probe [14C]-metformin 10 µM
T2 sequence (O15244 1-555): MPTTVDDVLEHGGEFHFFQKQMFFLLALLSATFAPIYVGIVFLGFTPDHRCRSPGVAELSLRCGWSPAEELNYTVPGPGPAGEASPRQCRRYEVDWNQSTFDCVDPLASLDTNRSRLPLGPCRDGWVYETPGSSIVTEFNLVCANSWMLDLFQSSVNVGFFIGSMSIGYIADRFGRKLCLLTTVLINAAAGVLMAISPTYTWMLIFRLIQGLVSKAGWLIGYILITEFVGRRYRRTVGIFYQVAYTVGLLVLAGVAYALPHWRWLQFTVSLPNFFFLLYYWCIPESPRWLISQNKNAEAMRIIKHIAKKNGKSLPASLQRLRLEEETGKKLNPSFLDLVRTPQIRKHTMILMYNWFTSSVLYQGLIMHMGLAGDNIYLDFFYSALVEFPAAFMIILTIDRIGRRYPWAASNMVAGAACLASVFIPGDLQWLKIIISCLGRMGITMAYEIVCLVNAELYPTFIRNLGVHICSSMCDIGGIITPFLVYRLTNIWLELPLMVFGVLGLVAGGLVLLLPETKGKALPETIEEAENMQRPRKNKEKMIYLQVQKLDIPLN

human MATE2K [1] = biological target: T3, human MATE2K (Homo sapiens, UniProt Q86VL8); assay: in vitro; conditions: probe [14C]-metformin 10 µM
human OCT3 = biological target: T4, human OCT3 (Homo sapiens, UniProt O75751); assay: Inhibition of [14C]-metformin uptake in HEK-OCT3 cells; format: cell-based; conditions: for metformin uptake (remaining): OCT3-mediated, inhibitor at 10x Cmax,u
T4 sequence (O75751 1-556): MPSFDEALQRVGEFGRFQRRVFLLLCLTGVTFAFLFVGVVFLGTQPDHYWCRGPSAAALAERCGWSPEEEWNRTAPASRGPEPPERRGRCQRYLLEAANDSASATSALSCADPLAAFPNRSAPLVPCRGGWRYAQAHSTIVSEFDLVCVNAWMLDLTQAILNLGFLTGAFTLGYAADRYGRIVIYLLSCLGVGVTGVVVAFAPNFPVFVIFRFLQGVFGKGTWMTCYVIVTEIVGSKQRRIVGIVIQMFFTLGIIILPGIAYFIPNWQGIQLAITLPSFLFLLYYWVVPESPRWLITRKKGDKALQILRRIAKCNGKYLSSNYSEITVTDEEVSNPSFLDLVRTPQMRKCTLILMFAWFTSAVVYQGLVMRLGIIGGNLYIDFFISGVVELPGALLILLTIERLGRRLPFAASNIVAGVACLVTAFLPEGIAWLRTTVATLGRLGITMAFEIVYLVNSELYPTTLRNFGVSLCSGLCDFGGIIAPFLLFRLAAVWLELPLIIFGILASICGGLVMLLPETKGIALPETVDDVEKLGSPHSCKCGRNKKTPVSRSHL

human PMAT = biological target: T5, human PMAT (Homo sapiens, UniProt Q7RTT9); assay: Inhibition of [14C]-metformin uptake in MDCK-PMAT cells; format: cell-based
T5 sequence (Q7RTT9 1-530): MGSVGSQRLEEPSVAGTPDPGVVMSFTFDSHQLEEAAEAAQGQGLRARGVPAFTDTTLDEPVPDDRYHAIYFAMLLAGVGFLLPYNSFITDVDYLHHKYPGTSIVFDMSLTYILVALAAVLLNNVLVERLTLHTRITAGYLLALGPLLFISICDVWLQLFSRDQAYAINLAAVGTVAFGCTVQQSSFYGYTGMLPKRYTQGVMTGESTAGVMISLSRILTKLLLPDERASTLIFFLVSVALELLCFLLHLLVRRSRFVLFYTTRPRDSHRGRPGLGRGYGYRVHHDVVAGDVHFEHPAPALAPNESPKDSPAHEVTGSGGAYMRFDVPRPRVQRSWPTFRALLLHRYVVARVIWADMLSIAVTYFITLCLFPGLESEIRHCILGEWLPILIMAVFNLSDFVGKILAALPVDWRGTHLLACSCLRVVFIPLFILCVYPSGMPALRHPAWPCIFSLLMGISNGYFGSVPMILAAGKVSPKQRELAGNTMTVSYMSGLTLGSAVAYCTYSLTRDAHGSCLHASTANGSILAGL

human OCT1 [2] = biological target: T6, human OCT1 (Homo sapiens, UniProt O15245); conditions: OCT1-mediated, inhibitor at 10x Cmax,u
T6 sequence (O15245 1-554): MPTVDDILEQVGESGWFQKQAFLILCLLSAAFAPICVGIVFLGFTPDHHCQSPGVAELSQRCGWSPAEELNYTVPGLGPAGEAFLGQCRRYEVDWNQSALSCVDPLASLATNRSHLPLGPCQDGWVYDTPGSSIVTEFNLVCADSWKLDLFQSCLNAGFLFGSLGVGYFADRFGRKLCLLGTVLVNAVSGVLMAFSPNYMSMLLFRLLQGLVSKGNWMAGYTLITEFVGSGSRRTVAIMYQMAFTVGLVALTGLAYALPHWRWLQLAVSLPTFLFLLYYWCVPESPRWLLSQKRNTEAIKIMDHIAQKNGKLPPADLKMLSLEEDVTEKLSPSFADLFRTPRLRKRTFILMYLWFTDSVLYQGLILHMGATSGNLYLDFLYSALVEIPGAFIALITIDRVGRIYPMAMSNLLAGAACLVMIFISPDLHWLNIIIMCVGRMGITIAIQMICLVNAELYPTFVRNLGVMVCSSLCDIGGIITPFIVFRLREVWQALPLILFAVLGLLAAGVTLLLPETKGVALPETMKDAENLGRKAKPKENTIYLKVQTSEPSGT

human OCT1 [3] = biological target: T6, human OCT1; assay: cell-based
human MATE2K [4] = biological target: T3, human MATE2K; assay: cell-based; conditions: IC50, [14C]-metformin 10 μM uptake, HEK-MATE2K
[5] = format: in vivo, human
[6] = human plasma; cited from earlier work
[7] = metformin 850 mg oral alone
[8] = metformin alone; OGTT 75 g 2 hours after dosing; p>0.1 vs pre-metformin
clinical = conditions: human, po, 850 mg

T3 sequence (Q86VL8 1-566 isoform Q86VL8-3): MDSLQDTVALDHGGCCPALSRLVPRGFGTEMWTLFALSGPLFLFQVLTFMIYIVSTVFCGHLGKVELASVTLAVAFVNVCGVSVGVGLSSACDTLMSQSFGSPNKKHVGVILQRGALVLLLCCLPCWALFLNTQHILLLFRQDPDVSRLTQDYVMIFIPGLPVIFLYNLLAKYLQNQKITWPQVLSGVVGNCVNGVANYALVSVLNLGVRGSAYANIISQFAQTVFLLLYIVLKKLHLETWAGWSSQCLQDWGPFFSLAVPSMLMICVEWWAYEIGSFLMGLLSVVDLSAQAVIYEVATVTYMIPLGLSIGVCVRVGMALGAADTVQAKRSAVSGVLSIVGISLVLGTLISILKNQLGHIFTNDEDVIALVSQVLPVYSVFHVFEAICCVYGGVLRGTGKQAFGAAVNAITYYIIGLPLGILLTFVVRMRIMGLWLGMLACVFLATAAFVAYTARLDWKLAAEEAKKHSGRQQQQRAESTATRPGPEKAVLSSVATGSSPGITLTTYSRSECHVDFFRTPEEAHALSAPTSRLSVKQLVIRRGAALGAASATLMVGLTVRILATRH

Work on `CC(C)/N=c1\cc2n(-c3ccc(Cl)cc3)c3ccccc3nc-2cc1Nc1ccc(Cl)cc1` [clofazimine] yielded an inhibition at 10 x Cmax,u (human MATE1) of at least 50%.
In the case of `CCN(CC)CCNC(=O)c1ccc(N)cc1` [procainamide], the inhibition at 10 x Cmax,u (human OCT2) is reported as at least 50% and the inhibition at 10 x Cmax,u (human MATE2K [1]) is reported as at least 50%.
Molecule `C=CCN1CC[C@]23c4c5ccc(O)c4O[C@H]2C(=O)CC[C@@]3(O)[C@H]1C5` [naloxone] has an inhibition at 10 x Cmax,u (human OCT2) of at least 50%.
Work on `C=C[C@H]1C[N@@]2CC[C@H]1C[C@H]2[C@H](O)c1ccnc2ccc(OC)cc12` [quinine] yielded an inhibition at 10 x Cmax,u (human OCT2) of at least 50%, an inhibition at 10 x Cmax,u (human MATE1) of at least 50% and an inhibition at 10 x Cmax,u (human MATE2K [1]) of at least 50%.
With `CNC(=C[N+](=O)[O-])NCCSCc1ccc(CN(C)C)o1` [ranitidine] the IC50 (human OCT2) was 15.7 µM, the IC50 (human OCT3) was 93.5 µM and the “metformin uptake (remaining)” value (human OCT3) was over 50%. For the same molecule, the inhibition at 10 x Cmax,u (human MATE1) was at least 50%, the IC50 (human PMAT) was over 214 µM and the “metformin uptake (remaining)” value (human OCT1 [2]) was over 50%. It also gave an inhibition at 10 x Cmax,u (human MATE2K [1]) of at least 50%, an IC50 (human OCT1 [3]) of 26.8 µM and an IC50 (human MATE2K [4]) of 4.63 µM.
`COc1cc(Cc2cnc(N)nc2N)cc(OC)c1OC` [trimethoprim] gave an inhibition at 10 x Cmax,u (human MATE1) of at least 50% and an inhibition at 10 x Cmax,u (human MATE2K [1]) of at least 50%.
With `Cc1nccn1CC1CCc2c(c3ccccc3n2C)C1=O` (stereo not drawn) [ondansetron] the IC50 (human OCT3) was over 1.32 µM, the “metformin uptake (remaining)” value (human OCT3) was over 50% and the inhibition at 10 x Cmax,u (human MATE1) was at least 50%. For the same molecule, the IC50 (human PMAT) was over 1.32 µM, the “metformin uptake (remaining)” value (human OCT1 [2]) was over 50% and the inhibition at 10 x Cmax,u (human MATE2K [1]) was at least 50%. For the same molecule, the IC50 (human OCT1 [3]) was over 1.32 µM.
With `CN/C(=N/CCSCc1nc[nH]c1C)NC#N` [cimetidine] the inhibition at 10 x Cmax,u (human MATE1) was at least 50% and the inhibition at 10 x Cmax,u (human MATE2K [1]) was at least 50%.
`COc1c(N2C[C@@H]3CCCN[C@@H]3C2)c(F)cc2c(=O)c(C(=O)O)cn(C3CC3)c12` [moxifloxacin] gave an IC50 (human OCT2) of over 151 µM, an IC50 (human OCT3) of over 151 µM and an IC50 (human MATE1) of 5.12 µM. It also gave an inhibition at 10 x Cmax,u (human MATE1) of at least 50%, an IC50 (human PMAT) of over 151 µM and an inhibition at 10 x Cmax,u (human MATE2K [1]) of at least 50%. It also gave an IC50 (human OCT1 [3]) of 47 µM and an IC50 (human MATE2K [4]) of 1.19 µM.
In the case of `CNC(=C[N+](=O)[O-])NCCSCc1csc(CN(C)C)n1` [nizatidine], the IC50 (human OCT2) is reported as over 115 µM, the IC50 (human OCT3) is reported as 41.1 µM and the “metformin uptake (remaining)” value (human OCT3) is reported as over 50%. It also gave an IC50 (human MATE1) of 52.7 µM, an IC50 (human PMAT) of over 115 µM and a half-life ([5]; human, plasma, oral) of about 3 h. For the same molecule, the Cmax ([5]; human, plasma, po, 600 mg) was 4200 ng/mL and 12.7 µM, the “calculated Cmax,u” value ([5]; nizatidine 600 mg oral, calculated with 35% protein binding) was 2.7 ± 0.2 μg/mL and 8.2 μM and the “metformin uptake (remaining)” value (human OCT1 [2]) was over 50%. For the same molecule, the protein binding [6] was 35%, the inhibition at 10 x Cmax,u (human MATE2K [1]) was at least 50% and the IC50 (human OCT1 [3]) was over 115 µM. The IC50 (human MATE2K [4]) was 7.8 µM and 7.81 µM.
For `CCn1cc(C(=O)O)c(=O)c2cc(F)c(N3CCNCC3)cc21` [norfloxacin], the IC50 (human OCT2) was over 160 µM, the IC50 (human OCT3) was over 160 µM and the “metformin uptake (remaining)” value (human OCT3) was over 50%. It also gave an IC50 (human MATE1) of 19.9 µM, an inhibition at 10 x Cmax,u (human MATE1) of at least 50% and an IC50 (human PMAT) of over 160 µM. For the same molecule, the “metformin uptake (remaining)” value (human OCT1 [2]) was over 50%, the inhibition at 10 x Cmax,u (human MATE2K [1]) was at least 50% and the IC50 (human OCT1 [3]) was over 160 µM. The IC50 (human MATE2K [4]) was 4.74 µM.
`CC(=O)OCC(CCn1cnc2cnc(N)nc21)COC(C)=O` [famciclovir] showed an inhibition at 10 x Cmax,u (human MATE2K [1]) of at least 50%.
In the case of `Nc1nc(NC2CC2)c2ncn([C@H]3C=C[C@@H](CO)C3)c2n1` [abacavir], the inhibition at 10 x Cmax,u (human MATE1) is reported as at least 50%.
In the case of `CN(C)C(=N)N=C(N)N` [Metformin, metformin], the CL/F [7] is reported as 1360 ± 440 mL/min, the V/F [7] is reported as 577 ± 179 L and the “Amount in urine0–24” value ([7]; 11 subjects) is reported as 437 ± 86 mg. The “glucose AUC after OGTT” value [8] was 3100 ± 121 mg·h/L, the CL renal (clinical; plasma and urine) was 736 ± 204 mL/min and the AUC(0-inf) (clinical; plasma) was 11400 ± 3300 ng·h/mL. For the same molecule, the AUC(0-t) (clinical; plasma) was 11000 ± 3100 ng·h/mL, the Cmax (clinical; plasma) was 1810 ± 600 ng/mL and the Tmax (clinical; plasma) was 2.46 ± 0.66 h.
